From patent publication US20180055816A1, “PYRANONAPHTHOQUINONE COMPOUNDS AND METHODS OF USE THEREOF” (University of Kentucky Research Foundation, priority 2016, published 2018)

Legend:
Type in all cases: cell-based, human
S6 phosphorylation = S6 phosphorylation in HCT116 cells (Western blot); conditions: HCT116, 12 h; 2 μM FB or UCF76-A, 100 nM rapamycin, 0.5 μM AZD8055
Description: (§1) HCT116 cells were treated with 1 μM MK2206 and 100 nM PD0325901 alone and in combination, 100 nM rapamycin, 0.5 μM AZD8055, 2 μM UCF76-A or 2 μM FB for 12 h followed by Western blot analysis for the indicated proteins.
(§2) Cells were lysed in NP-40 lysis buffer (50 mM Tris-HCl, pH 7.5, 150 mM NaCl, 1 mM EDTA, 1% NP-40, 10% glycerol, protease and phosphatase inhibitor cocktail). Western blot analysis were performed using equivalent total protein loadings as described previously. For immunoprecipitation, the cell lysates were incubated with the indicated antibody overnight followed by incubation with a 50% slurry of protein G sepharose beads for 3 h at 4° C. The beads were washed three times with the lysis buffer, and the immunoprecipitated protein complexes were resuspended in 2× Laemmli sample buffer followed by western blot analysis.

p70S6K phosphorylation = p70S6K phosphorylation in HCT116 cells (Western blot); conditions: HCT116, 12 h; 2 μM FB or UCF76-A, 100 nM rapamycin, 0.5 μM AZD8055
Description: as §1, §2

AKT phosphorylation = AKT phosphorylation in HCT116 cells (Western blot); conditions: HCT116, 12 h; 2 μM FB or UCF76-A, 0.5 μM AZD8055, 1 μM MK2206
Description: as §1, §2

GSSG = test: Quantification of glutathione disulfide (GSSG) in HCT116 cells; conditions: HCT116, 2 μM, 5 h
Description: Cells were treated with 2 μM of the indicated compounds or DMSO as control for 5 h. Quantification of GSSG was essentially performed using the manufactures instructions for a microplate assay for GSH/GSSG (Oxford Biomedical Research, Inc, Oxford, Mich.). A total number of 0.5×10^6 cells were collected in 1.5 ml centrifuge tubes containing ice-cold buffer with the thiol scavenger to keep GSSG in its oxidized form. The cells were homogenized with a Teflon pestle and the cell suspension sonicated in icy water for 2-3 minutes. Ice-cold metaphosphoric acid was added to deproteinate the samples. The samples were centrifuged at 1000×g at 4° C. and the supernatants were used for determining the GSSG concentration according to the manufactures protocol using a microplate reader with 405 nm filter. The change in GSSG levels in the indicated compound-treated samples was expressed as fold change compared to control (DMSO) treated samples.

[1] = test system: colorectal cancer (CRC) cell lines; test: Cytotoxicity against a panel of colorectal cancer cell lines; conditions: 72 h
Excerpt: Human colon (HCT116, DLD-1, T84, HCT15, RKO, SW620) and breast (MDA-MB-231) cancer cell lines were obtained from the American Type Culture Collection (ATCC, Manassas, Va.) and cultured in the appropriate medium with supplements as recommended by ATCC. […] In addition, all the cell lines are routinely checked for morphologic and growth changes, to probe for cross-contaminated, or genetically drifted cells. If any of these features occur, we use the short tandem repeat (STR) profiling service by ATCC to re-authenticate the cell lines. HCT116 cells with stable knockdown of 4E-BP1 and its control stable transfectants were generated as described previously {Ye, 2014 #1007}. For transient transfection, cells were transiently transfected with DNA using Lipofectamine 3000 according to the manufacturer's protocol (Life Technologies, Carlsbad, Calif.).
Cell growth was assessed as described previously. Briefly, 5×10^4 cells were seeded in 6-well plates in triplicates. After 24 h, cells were treated with the indicated compounds and incubated at 37° C. The cells were cultured for 3 days and the number of viable cells was counted using the Vi-CELL XR 2.03 (Beckman Coulter, Brea, Calif.). For apoptosis, cells were analyzed by flow cytometry using the Annexin V-FITC Apoptosis Detection Kit according to the manufacturer's protocol (BD Biosciences, San Jose, Calif.).

4E-BP1 phosphorylation [2] = test: Inhibition of 4E-BP1 phosphorylation in HCT116 cells (Western blot); conditions: 12 h
Description: (§3) Compounds that pass this single dose filter are then tested in a CRC (HCT116) in vitro cytotoxicity assay and, in parallel, an in vitro assay to assess propensity for intracellular reactive oxygen species (ROS) production using the redox sensitive probe CeIIROX® Deep Red reagent (Invitrogen) by flow cytometry analysis (47).
as §2

H2O2 = test: Cellular H2O2 level in HCT116 cells; conditions: HCT116, 2 μM, 5 h
Description: (§4) The ROS production was determined using the CellROX Deep Red Flow Cytometry Assay Kit according to the manufacturer's protocol (Life Technologies). Briefly, cells were treated with 2 μM of the indicated compounds or DMSO as control for 1 h. After treatment, cells were incubated with 0.5 μM of CellROX Deep Red reagent for 1 h at 37° C., washed twice with PBS and immediately analyzed by a FACScan flow cytometer. For the measurement of cellular H2O2 level, cells were treated with 2 μM of the indicated compounds for 5 h.

[3] = test system: cap-dependent translation; test: Cap-dependent translation bicistronic luciferase reporter assay in HCT116 cells; conditions: 12 h
[4] = test system: intracellular reactive oxygen species (ROS); test: Intracellular ROS production, CellROX Deep Red flow cytometry, HCT116 cells; conditions: HCT116, 2 μM, 1 h
Description: as §3, §4

4E-BP1 phosphorylation [5] = test: 4E-BP1 phosphorylation in MDA-MB-231 breast cancer cells (Western blot); conditions: MDA-MB-231 cells, 2 μM, 12 hours
Description: (§5) Cells were treated with 100 nM rapamycin, 0.5 μM AZD8055, 2 μM FB, 2 μM UCF76-A or DMSO control for 12 hours followed by Western blot analysis for the indicated proteins.
as §2

4E-BP1 phosphorylation [6] = test: 4E-BP1 phosphorylation in DLD-1 colon cancer cells (Western blot); conditions: DLD-1 cells, 2 μM, 12 hours
Description: as §5, §2

CCCC1OC2CC(=O)OC2C2=C1C(=O)c1c(O)cccc1C2=O (stereo not drawn) [FB, frenolicin B]
inhibition of S6 phosphorylation (S6 phosphorylation): did not inhibit | inhibition of p70S6K phosphorylation (p70S6K phosphorylation): only weakly inhibited | inhibition of AKT phosphorylation (AKT phosphorylation): did not inhibit | GSSG levels (GSSG): increase | cytotoxicity against CRC cell lines [1]: potent cytotoxicity | cytotoxicity against CRC cell lines ([1]; listed as frenolicin B): potent cytotoxic activity | inhibition of 4E-BP1 phosphorylation (4E-BP1 phosphorylation [2]): effectively inhibited | cellular H2O2 (H2O2): marked increase | inhibition of cap-dependent translation [3]: effectively inhibit | cellular ROS [4]: marked increase | inhibition of 4E-BP1 phosphorylation (4E-BP1 phosphorylation [5]): selectively inhibit | inhibition of 4E-BP1 phosphorylation (4E-BP1 phosphorylation [6]): selectively inhibit
